In the supplement of paper PMC10307832:

What was measured:
Assay in all cases: relative viability (nuclei count vs DMSO), 5 days (fraction); higher = more cells survive
[1] = compound: C1=CC(=CC=C1C2=CC(=C(S2)NC(=O)N)C(=O)N)F [TPCA-1]
How it was run: (§1)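 Viability was read as treated-well nuclei divided by vehicle-well nuclei, using the median across plates. Lung cancer cell lines in 1536-well plates were kept overnight at 37 °C, pinned with five √10-spaced library-drug doses, and after 5 days were Hoechst-stained, imaged at 4× and counted in MetaXpress. Plates passed only with control CV below 25% and at least one doubling.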

[2] = compound: C1/C(=C\C2=CC=CS2)/C(=O)/C(=C/C3=CC=CS3)/C1
How it was run: as §1

[3] = compound: C[C@]12O[C@H](C[C@]1(O)CO)n1c3ccccc3c3c4c(c5c6ccccc6n2c5c31)CNC4=O [Lestaurtinib]
How it was run: as §1

| Cell Line | relative viability ([1]; 0.04 µM) | relative viability ([1]; 0.1265 µM) | relative viability ([1]; 0.4 µM) | relative viability ([1]; 1.265 µM) | relative viability ([1]; 4 µM) | relative viability ([2]; 0.2 µM) | relative viability ([2]; 0.6325 µM) | relative viability ([2]; 2 µM) | relative viability ([2]; 6.325 µM) | relative viability ([2]; 20 µM) | relative viability ([3]; 0.005 µM) | relative viability ([3]; 0.01581 µM) | relative viability ([3]; 0.05 µM) | relative viability ([3]; 0.1581 µM) | relative viability ([3]; 0.5 µM) |
| --- | --- | --- | --- | --- | --- | --- | --- | --- | --- | --- | --- | --- | --- | --- | --- |
| NCI-H1395 | 1.01 | 0.916 | 1.02 | 0.811 | 0.703 | 0.912 | 0.876 | 1.11 | 0.833 | 0.945 | 0.886 | 1.04 | 0.759 | 0.759 | 0.462 |
| NCI-H1437 | 1.01 | 1.01 | 1.03 | 0.971 | 0.887 | 0.984 | 0.965 | 0.949 | 0.82 | 0.974 | 1.03 | 1.15 | 0.914 | 0.89 | 0.835 |
| NCI-H1563 | 0.886 | 0.964 | 0.971 | 0.941 | 0.956 | 1.01 | 0.876 | 1.03 | 0.936 | 0.998 | 1.06 | 1.02 | 0.913 | 0.972 | 0.72 |
| NCI-H1623 | 1.13 | 0.879 | 0.962 | 1.01 | 0.763 | 0.977 | 0.865 | 1.1 | 0.903 | 0.911 | 0.978 | 0.962 | 0.931 | 0.884 | 0.813 |
| NCI-H1648 | 1.1 | 0.788 | 1.03 | 0.824 | 0.993 | 0.934 | 0.875 | 0.876 | 0.728 | 0.739 | 0.688 | 0.993 | 0.691 | 1.17 | 0.879 |
| NCI-H1650 | 1.03 | 0.851 | 1.06 | 0.955 | 0.852 | 0.874 | 0.908 | 1.01 | 0.867 | 0.875 | 0.976 | 1.09 | 0.961 | 1.19 | 0.415 |
| NCI-H1651 | 1.05 | 0.921 | 0.955 | 1.01 | 0.877 | 0.978 | 1.07 | 0.985 | 0.861 | 0.949 | 0.989 | 1.05 | 0.81 | 1.07 | 0.69 |
| NCI-H1666 | 1.09 | 0.972 | 0.982 | 0.973 | 0.904 | 1.02 | 1.02 | 0.922 | 0.919 | 0.955 | 1.11 | 1.13 | 1.31 | 0.986 | 0.894 |
| NCI-H1703 | 1.24 | 0.728 | 0.911 | 0.647 | 0.832 | 1.19 | 1.2 | 1.01 | 0.788 | 0.958 | 0.945 | 0.749 | 0.591 | 0.272 | 0.151 |
| NCI-H1734 | 1.17 | 0.848 | 1.1 | 1.03 | 0.553 | 1.02 | 1.01 | 1.03 | 0.891 | 0.984 | 0.993 | 0.956 | 0.66 | 0.563 | 0.262 |
| NCI-H1755 | 0.951 | 0.941 | 1.01 | 0.922 | 0.765 | 1.02 | 0.987 | 1.04 | 0.807 | 0.999 | 1.02 | 1.05 | 0.965 | 0.736 | 0.351 |
| NCI-H1792 | 1.22 | 0.894 | 0.914 | 0.568 | 0.42 | 1.03 | 1.02 | 1.09 | 0.854 | 0.955 | 0.744 | 1.36 | 0.504 | 0.63 | 0.433 |
| NCI-H1793 | 1.1 | 0.718 | 1.08 | 0.954 | 0.279 | 0.962 | 0.953 | 1.1 | 0.856 | 0.87 | 0.949 | 0.986 | 0.657 | 0.828 | 0.723 |
| NCI-H1915 | 1.1 | 0.984 | 1.05 | 0.896 | 0.608 | 1.02 | 1.04 | 0.99 | 0.93 | 0.97 | 1.01 | 1.05 | 0.927 | 0.642 | 0.344 |
| NCI-H1944 | 1.15 | 0.88 | 1.07 | 0.998 | 0.715 | 1.04 | 0.922 | 0.977 | 0.858 | 0.917 | 0.888 | 0.972 | 0.968 | 0.655 | 0.396 |
| NCI-H1975 | 0.974 | 0.887 | 0.932 | 0.87 | 0.576 | 0.99 | 0.891 | 0.886 | 0.838 | 0.969 | 1.04 | 1.03 | 0.829 | 0.774 | 0.649 |
| NCI-H1993 | 0.985 | 0.805 | 0.94 | 1.06 | 0.722 | 1.04 | 0.898 | 1.05 | 0.786 | 0.861 | 1.02 | 0.949 | 0.824 | 0.709 | 0.567 |
| NCI-H2009 | 1.12 | 1 | 1.01 | 0.859 | 0.834 | 1.03 | 0.98 | 0.972 | 0.936 | 0.994 | 0.999 | 1.04 | 0.82 | 0.762 | 0.366 |

| Cell Line | relative viability ([1]; 0.04 µM) | relative viability ([1]; 0.1265 µM) | relative viability ([1]; 0.4 µM) | relative viability ([1]; 1.265 µM) | relative viability ([1]; 4 µM) | relative viability ([2]; 0.2 µM) | relative viability ([2]; 0.6325 µM) | relative viability ([2]; 2 µM) | relative viability ([2]; 6.325 µM) | relative viability ([2]; 20 µM) | relative viability ([3]; 0.005 µM) | relative viability ([3]; 0.01581 µM) | relative viability ([3]; 0.05 µM) | relative viability ([3]; 0.1581 µM) | relative viability ([3]; 0.5 µM) |
| --- | --- | --- | --- | --- | --- | --- | --- | --- | --- | --- | --- | --- | --- | --- | --- |
| NCI-H2023 | 1.16 | 0.946 | 1.13 | 0.85 | 0.509 | 1 | 1.04 | 1.07 | 0.827 | 0.837 | 1.02 | 0.978 | 0.874 | 0.746 | 0.201 |
| NCI-H2085 | 0.989 | 0.989 | 0.988 | 0.897 | 0.875 | 1.08 | 1.01 | 1.01 | 0.898 | 0.961 | 0.989 | 0.99 | 0.996 | 1.01 | 0.786 |
| NCI-H2087 | 1.18 | 0.966 | 0.982 | 0.915 | 0.542 | 1.13 | 0.872 | 1.2 | 0.783 | 1.01 | 1.03 | 0.951 | 0.816 | 0.834 | 0.367 |
| NCI-H2126 | 0.997 | 0.918 | 1.01 | 0.89 | 0.809 | 1.03 | 1.01 | 1.07 | 0.896 | 0.979 | 1.02 | 1.1 | 0.891 | 0.842 | 0.729 |
| NCI-H2170 | 1.19 | 0.959 | 0.98 | 0.895 | 0.674 | 1 | 0.942 | 0.991 | 0.881 | 0.924 | 0.959 | 0.832 | 0.689 | 0.807 | 0.494 |
| NCI-H2228 | 1.09 | 0.785 | 1.16 | 0.984 | 0.666 | 1.01 | 0.989 | 1.15 | 0.748 | 1.1 | 1.25 | 1.11 | 0.698 | 0.483 | 0.258 |
| NCI-H2342 | 1 | 0.961 | 1.05 | 0.956 | 0.919 | 1.01 | 0.951 | 1.06 | 0.829 | 0.954 | 0.947 | 1.04 | 0.863 | 1.09 | 1.03 |
| NCI-H2347 | 1.13 | 0.961 | 1.01 | 0.873 | 0.929 | 1.1 | 1.03 | 1.02 | 0.969 | 1.03 | 0.979 | 1.1 | 0.9 | 0.72 | 0.654 |
| NCI-H2405 | 1.08 | 0.944 | 1.09 | 0.816 | 0.842 | 1.01 | 0.988 | 1.14 | 0.959 | 1.02 | 0.97 | 1.08 | 0.974 | 0.822 | 0.532 |
| NCI-H3122 | 1.04 | 0.924 | 1 | 1.01 | 0.991 | 1.03 | 0.986 | 1.05 | 0.892 | 0.975 | 1.06 | 1.11 | 0.981 | 1.11 | 0.615 |
| PC-3 [JPC-3] | 1.04 | 1 | 1.04 | 1.04 | 0.951 | 1.04 | 1.06 | 1.03 | 0.949 | 1.08 | 1.07 | 1.08 | 0.957 | 0.77 | 0.624 |
| PC-14 | 1.03 | 0.946 | 1.06 | 1.04 | 0.838 | 1.03 | 1.06 | 1 | 0.899 | 0.995 | 1.06 | 1.11 | 0.848 | 0.741 | 0.344 |
| RERF-LC-KJ | 1.02 | 0.895 | 0.982 | 0.93 | 0.826 | 0.984 | 1.04 | 1.02 | 0.878 | 0.927 | 1.03 | 1.09 | 0.847 | 0.827 | 0.558 |
| SK-LU-1 | 1.13 | 0.9 | 1.07 | 0.836 | 0.632 | 1.12 | 1.09 | 1.07 | 0.91 | 1.1 | 1.07 | 0.883 | 0.531 | 0.563 | 0.263 |
| SK-MES-1 | 1.06 | 0.864 | 0.976 | 0.881 | 0.604 | 1.05 | 1.03 | 1.02 | 0.906 | 0.972 | 1.02 | 0.931 | 0.57 | 0.394 | 0.259 |
| SW 900 | 0.663 | 0.719 | 0.922 | 0.775 | 0.654 | 0.9 | 0.947 | 0.87 | 0.874 | 0.864 | 0.916 | 1.08 | 0.966 | 1.06 | 0.885 |
| SW 1573 | 1.18 | 0.91 | 0.985 | 0.947 | 0.858 | 1.05 | 0.996 | 1.08 | 0.891 | 0.99 | 1.05 | 0.989 | 0.782 | 0.571 | 0.401 |
